From PubChem BioAssay AID1963840 (Molecular Pharmacology Branch, DTP, NCI, 2024) come the findings set out here.
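Also: spheroids exposed to compounds for seven days; 100% = DMSO vehicle control viability.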

For one test, the system named is 695427-040-R-J1-PDC complex spheroid viability. Briefly: Anticancer human tumor 695427-040-R-J1-PDC patient-derived colon adenocarcinoma cell line growth inhibition [POLQ]. The following applies: second compound 0.1 µM; first compound 1 µM; active compounds read low. In outline: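 Three-cell-type spheroids modelling solid tumor plus stroma served as the readout system; POL inhibitors were tested individually and in combination, concentration ranges set by clinical Cmax where known.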
As for `CCc1cc2c(N3CCc4c(cc(Cn5ccnc5)cc4-c4cn(C)nc4C(F)(F)F)C3=O)ccnc2c(OC)n1` + Nc1ccc(C#CCN(C(=O)Cc2ncc(C(F)(F)F)cc2C(F)(F)F)c2ccc(F)cc2)nn1, the viability, T/C was 100%.

Consider `COc1cc2cc(C(=O)CCC(=O)O)sc2cc1OC` + Nc1ccc(C#CCN(C(=O)Cc2ncc(C(F)(F)F)cc2C(F)(F)F)c2ccc(F)cc2)nn1, for which the viability, T/C is 102%.

The same test, now with this note: second compound 0.1 µM; first compound 3.16 µM; active compounds read low.
As for `C=CC(=O)N1CCN(c2nc(=O)n(-c3c(C)ccnc3C(C)C)c3nc(-c4c(O)cccc4F)c(F)cc23)C(C)C1` (configuration not stated) + Nc1ccc(C#CCN(C(=O)Cc2ncc(C(F)(F)F)cc2C(F)(F)F)c2ccc(F)cc2)nn1, the viability, T/C was 104%.

In the case of `CC(C)n1c(=O)n(C)c2cnc3cc(F)c(-c4ccc(OCCCN5CCCCC5)nc4)cc3c21` + Nc1ccc(C#CCN(C(=O)Cc2ncc(C(F)(F)F)cc2C(F)(F)F)c2ccc(F)cc2)nn1, the viability, T/C is 108%.

As to `CCc1cc2c(N3CCc4c(cc(Cn5ccnc5)cc4-c4cn(C)nc4C(F)(F)F)C3=O)cc(C)nc2c(OC)n1` + Nc1ccc(C#CCN(C(=O)Cc2ncc(C(F)(F)F)cc2C(F)(F)F)c2ccc(F)cc2)nn1, the viability, T/C is 112%.

For `CCc1cc2c(N3CCc4c(cc(Cn5ccnc5)cc4-c4cn(C)nc4C(F)(F)F)C3=O)ccnc2c(OC)n1` + Nc1ccc(C#CCN(C(=O)Cc2ncc(C(F)(F)F)cc2C(F)(F)F)c2ccc(F)cc2)nn1, the viability, T/C was 105%.

Consider `COc1cc2cc(C(=O)CCC(=O)O)sc2cc1OC` + Nc1ccc(C#CCN(C(=O)Cc2ncc(C(F)(F)F)cc2C(F)(F)F)c2ccc(F)cc2)nn1, for which the viability, T/C is 115%.

The same test, now with this note: second compound 0.1 µM; first compound 10 µM; active compounds read low.
Consider `C=CC(=O)N1CCN(c2nc(=O)n(-c3c(C)ccnc3C(C)C)c3nc(-c4c(O)cccc4F)c(F)cc23)C(C)C1` (configuration not stated) + Nc1ccc(C#CCN(C(=O)Cc2ncc(C(F)(F)F)cc2C(F)(F)F)c2ccc(F)cc2)nn1, for which the viability, T/C is 113%.

Regarding `CC(C)n1c(=O)n(C)c2cnc3cc(F)c(-c4ccc(OCCCN5CCCCC5)nc4)cc3c21` + Nc1ccc(C#CCN(C(=O)Cc2ncc(C(F)(F)F)cc2C(F)(F)F)c2ccc(F)cc2)nn1, the viability, T/C was 81.9%.

Regarding `CCc1cc2c(N3CCc4c(cc(Cn5ccnc5)cc4-c4cn(C)nc4C(F)(F)F)C3=O)cc(C)nc2c(OC)n1` + Nc1ccc(C#CCN(C(=O)Cc2ncc(C(F)(F)F)cc2C(F)(F)F)c2ccc(F)cc2)nn1, the viability, T/C was 102%.

As to `CCc1cc2c(N3CCc4c(cc(Cn5ccnc5)cc4-c4cn(C)nc4C(F)(F)F)C3=O)ccnc2c(OC)n1` + Nc1ccc(C#CCN(C(=O)Cc2ncc(C(F)(F)F)cc2C(F)(F)F)c2ccc(F)cc2)nn1, the viability, T/C is 102%.

Regarding `COc1cc2cc(C(=O)CCC(=O)O)sc2cc1OC` + Nc1ccc(C#CCN(C(=O)Cc2ncc(C(F)(F)F)cc2C(F)(F)F)c2ccc(F)cc2)nn1, the viability, T/C was 96.6%.

Staying with this test, now noted: second compound 0.316 µM; first compound 0.0316 µM; active compounds read low.
For the molecule `C=CC(=O)N1CCN(c2nc(=O)n(-c3c(C)ccnc3C(C)C)c3nc(-c4c(O)cccc4F)c(F)cc23)C(C)C1` (configuration not stated) + Nc1ccc(C#CCN(C(=O)Cc2ncc(C(F)(F)F)cc2C(F)(F)F)c2ccc(F)cc2)nn1, the viability, T/C was 116%.

Turning to `CC(C)n1c(=O)n(C)c2cnc3cc(F)c(-c4ccc(OCCCN5CCCCC5)nc4)cc3c21` + Nc1ccc(C#CCN(C(=O)Cc2ncc(C(F)(F)F)cc2C(F)(F)F)c2ccc(F)cc2)nn1, the viability, T/C was 114%.

For `CCc1cc2c(N3CCc4c(cc(Cn5ccnc5)cc4-c4cn(C)nc4C(F)(F)F)C3=O)cc(C)nc2c(OC)n1` + Nc1ccc(C#CCN(C(=O)Cc2ncc(C(F)(F)F)cc2C(F)(F)F)c2ccc(F)cc2)nn1, the viability, T/C is 102%.

Turning to `CCc1cc2c(N3CCc4c(cc(Cn5ccnc5)cc4-c4cn(C)nc4C(F)(F)F)C3=O)ccnc2c(OC)n1` + Nc1ccc(C#CCN(C(=O)Cc2ncc(C(F)(F)F)cc2C(F)(F)F)c2ccc(F)cc2)nn1, the viability, T/C is 118%.

As to `COc1cc2cc(C(=O)CCC(=O)O)sc2cc1OC` + Nc1ccc(C#CCN(C(=O)Cc2ncc(C(F)(F)F)cc2C(F)(F)F)c2ccc(F)cc2)nn1, the viability, T/C was 111%.

Staying with this test, now noted: second compound 0.316 µM; first compound 0.1 µM; active compounds read low.
`C=CC(=O)N1CCN(c2nc(=O)n(-c3c(C)ccnc3C(C)C)c3nc(-c4c(O)cccc4F)c(F)cc23)C(C)C1` (configuration not stated) + Nc1ccc(C#CCN(C(=O)Cc2ncc(C(F)(F)F)cc2C(F)(F)F)c2ccc(F)cc2)nn1: the viability, T/C was 107%.

With `CC(C)n1c(=O)n(C)c2cnc3cc(F)c(-c4ccc(OCCCN5CCCCC5)nc4)cc3c21` + Nc1ccc(C#CCN(C(=O)Cc2ncc(C(F)(F)F)cc2C(F)(F)F)c2ccc(F)cc2)nn1, the viability, T/C is 112%.

In the case of `CCc1cc2c(N3CCc4c(cc(Cn5ccnc5)cc4-c4cn(C)nc4C(F)(F)F)C3=O)cc(C)nc2c(OC)n1` + Nc1ccc(C#CCN(C(=O)Cc2ncc(C(F)(F)F)cc2C(F)(F)F)c2ccc(F)cc2)nn1, the viability, T/C was 98.9%.

Consider `CCc1cc2c(N3CCc4c(cc(Cn5ccnc5)cc4-c4cn(C)nc4C(F)(F)F)C3=O)ccnc2c(OC)n1` + Nc1ccc(C#CCN(C(=O)Cc2ncc(C(F)(F)F)cc2C(F)(F)F)c2ccc(F)cc2)nn1, for which the viability, T/C is 115%.

For `COc1cc2cc(C(=O)CCC(=O)O)sc2cc1OC` + Nc1ccc(C#CCN(C(=O)Cc2ncc(C(F)(F)F)cc2C(F)(F)F)c2ccc(F)cc2)nn1, the viability, T/C was 109%.

The same test, now with this note: second compound 0.316 µM; first compound 0.316 µM; active compounds read low.
Regarding `C=CC(=O)N1CCN(c2nc(=O)n(-c3c(C)ccnc3C(C)C)c3nc(-c4c(O)cccc4F)c(F)cc23)C(C)C1` (configuration not stated) + Nc1ccc(C#CCN(C(=O)Cc2ncc(C(F)(F)F)cc2C(F)(F)F)c2ccc(F)cc2)nn1, the viability, T/C was 102%.

As for `CC(C)n1c(=O)n(C)c2cnc3cc(F)c(-c4ccc(OCCCN5CCCCC5)nc4)cc3c21` + Nc1ccc(C#CCN(C(=O)Cc2ncc(C(F)(F)F)cc2C(F)(F)F)c2ccc(F)cc2)nn1, the viability, T/C was 103%.

As to `CCc1cc2c(N3CCc4c(cc(Cn5ccnc5)cc4-c4cn(C)nc4C(F)(F)F)C3=O)cc(C)nc2c(OC)n1` + Nc1ccc(C#CCN(C(=O)Cc2ncc(C(F)(F)F)cc2C(F)(F)F)c2ccc(F)cc2)nn1, the viability, T/C is 99.9%.

As to `CCc1cc2c(N3CCc4c(cc(Cn5ccnc5)cc4-c4cn(C)nc4C(F)(F)F)C3=O)ccnc2c(OC)n1` + Nc1ccc(C#CCN(C(=O)Cc2ncc(C(F)(F)F)cc2C(F)(F)F)c2ccc(F)cc2)nn1, the viability, T/C is 93%.

For `COc1cc2cc(C(=O)CCC(=O)O)sc2cc1OC` + Nc1ccc(C#CCN(C(=O)Cc2ncc(C(F)(F)F)cc2C(F)(F)F)c2ccc(F)cc2)nn1, the viability, T/C was 94.1%.
